Assay results published in publication PMC10609152, “Synthesis, Computational, and Anticancer In Vitro Investigations of Aminobenzylnaphthols Derived from 2-Naphtol, Benzaldehydes, and α-Aminoacids via the Betti Reaction” (Molecules, 2023).
Read-outs that look alike come from different tables or passages of the source.

Experiments:
[1] = MTT cell viability, WI-38 normal fibroblasts; type: cell-based; settings: human, read-out: % cell viability ± SD; for viability at 24 h: WI-38, 24 h; for viability at 72 h: WI-38, 72 h
Description: (§1) BxPC-3, HT-29, and WI-38 cells were seeded on 96-well plates at a density of approximately 8–10 × 10^3 cells per 100 µL medium/well. Cells were allowed to grow for 24 h in controlled conditions (37 °C; 5% CO2). […] The experimental design included nontreated controls and blanks (wells without cells). Following 24 or 72 h of culture with the investigated compounds, 20 μL of MTT tetrazolium salt (5 mg/mL in PBS) was added to each well, and the plates were incubated for 3 h in a humidified environment (37 °C; 5% CO2). The solutions were withdrawn after incubation, and 100 μL of DMSO was added to dissolve the formazan complexes. Afterward, a spectrophotometer (microplate reader Power Wave XS BioTek Instruments, Inc., Winooski, VT, USA) reading at 570 nm was conducted. The experiments were carried out in duplicates.
(§2) GraphPad Prism 7 software was used to calculate the concentration of an MMZ compound reflecting a 50% growth inhibition (IC50). IC50 is defined as a concentration of tested compound that leads to a reduction in cell pool viability by 50% compared to the negative control (accepted as 100%). % cell viability=Absorbance value of treated cells−Absorbance value of blank/(Absorbance value of untreated cells−Absorbance value of blank)×100%

[2] = system: BxPC-3 cells; assay: MTT assay, BxPC-3; type: cell-based; settings: Homo sapiens
Text: (§3) The MTT assay, also known as the 3-(4,5-dimethylthiazol-2-yl)-2,5-diphenyltetrazolium bromide assay, is a colorimetric assay used in biological and biomedical research to determine cell viability and proliferation. The MTT assay works on the assumption that live cells with active metabolism convert MTT into formazan crystals. These crystals are insoluble; however, they can be dissolved in an organic solvent such as DMSO to produce a colorful solution. The color intensity is proportional to the number of viable cells present in the culture.
as §1, §2

[3] = system: HT-29 cells; assay: MTT assay, HT-29; type: cell-based; settings: Homo sapiens
Text: as §3, §1, §2

[4] = solubility (remark); type: physicochemical
[5] = WI-38 normal fibroblast cells, compound at IC50 concentration estimated for BxPC-3 cells
[6] = WI-38 normal fibroblast cells, compound at IC50 concentration obtained for HT-29 cells
[7] = BxPC-3, 24-h MTT, independent experiment 1, read-out: IC50(1)
[8] = BxPC-3, 24-h MTT, independent experiment 2, read-out: IC50(2)
[9] = BxPC-3, 24-h MTT, read-out: Mean IC50 ± SD
[10] = BxPC-3, 72-h MTT, independent experiment 1, read-out: IC50(1)
[11] = BxPC-3, 72-h MTT, independent experiment 2, read-out: IC50(2)
[12] = BxPC-3, 72-h MTT, read-out: Mean IC50 ± SD
[13] = HT-29, 24-h MTT, independent experiment 1, read-out: IC50(1)
[14] = HT-29, 24-h MTT, independent experiment 2, read-out: IC50(2)
[15] = HT-29, 72-h MTT, independent experiment 1, read-out: IC50(1)
[16] = HT-29, 72-h MTT, independent experiment 2, read-out: IC50(2)
[17] = HT-29, 72-h MTT, read-out: Mean IC50 ± SD
[18] = HT-29, 24-h MTT, read-out: Mean IC50 ± SD
[19] = compound at IC50 concentration estimated for BxPC-3 cells
[20] = compound at IC50 concentration obtained for HT-29 cells
[21] = BXPC-3, 24 h, read-out: IC50(1)
[22] = BXPC-3, 24 h, read-out: IC50(2)
[23] = BXPC-3, 24 h, read-out: Mean IC50 ± SD
[24] = BXPC-3, 72 h, read-out: IC50(1)
[25] = BXPC-3, 72 h, read-out: IC50(2)
[26] = BXPC-3, 72 h, read-out: Mean IC50 ± SD
[27] = HT-29, 24 h, read-out: Mean IC50 ± SD
[28] = HT-29, 72 h, read-out: Mean IC50 ± SD

| Structure (SMILES) | IC50 [2, 7] | IC50 [2, 8] | IC50 [2, 9] | IC50 [2, 10] | IC50 [2, 11] | IC50 [2, 12] | IC50 [3, 13] | IC50 [3, 14] | IC50 [3, 15] | IC50 [3, 16] | IC50 [3, 17] | IC50 [3, 18] | other results |
| --- | --- | --- | --- | --- | --- | --- | --- | --- | --- | --- | --- | --- | --- |
| COC(=O)[C@H](CC(C)C)N[C@@H](c1ccccc1)c1c(O)ccc2ccccc12 (mixture of isomers) [MMZ-167C, (S,S) and (R,R)-methyl ((2-hydroxynaphthalen-1-yl)(phenyl)methyl)-L-leucinate] | 71.4 µM | 61 µM | 66.2 ± 7.36 µM | 32.9 µM | 31.2 µM | 32.1 ± 1.15 µM | 47.7 µM | 50 µM | 27.8 µM | 28.4 µM | 28.1 ± 0.375 µM | – | viability at 24 h [1, 5]: 76.8 ± 1.8%; viability at 24 h [1, 6]: 82.19 ± 0.69% |
| COC(=O)[C@@H](N[C@@H](c1ccc(Cl)cc1)c1c(O)ccc2ccccc12)C(C)C (mixture of isomers) [MMZ-39AA, (S,S) and (R,R)-methyl ((4-chlorophenyl)(2-hydroxynaphthalen-1-yl)methyl)-D-valinate] | 61.4 µM | 60.3 µM | 60.8 ± 0.8 µM | 44.8 µM | 41.6 µM | 43.2 ± 2.26 µM | 62.1 µM | 64 µM | 50.6 µM | 65.6 µM | 58.1 µM | 63.1 ± 1.36 µM | viability at 72 h [1, 6]: 64 ± 4.9% |
| COC(=O)CC[C@H](N[C@@H](c1ccccc1)c1c(O)ccc2ccccc12)C(=O)OC (mixture of isomers) [MMZ-148B, (S,S) and (R,R)-dimethyl ((2-hydroxynaphthalen-1-yl)(phenyl)methyl)-L-glutamate] | – | – | – | – | – | – | – | – | – | – | – | – | solubility [4]: poor solubility |
| COC(=O)[C@H](Cc1ccccc1)N[C@H](c1ccccc1)c1c(O)ccc2ccccc12 (mixture of isomers) [MMZ-45B, (S,R) and (R,S)-methyl ((2-hydroxynaphthalen-1-yl)(phenyl)methyl)-L-phenylalaninate] | – | – | – | – | – | – | – | – | – | – | – | – | viability at 24 h [1, 19]: 91.73 ± 0.87%; viability at 72 h [1, 19]: 86.7 ± 8.14%; viability at 72 h [1, 20]: 88.2 ± 1.6%; IC50 [2, 21]: 58.5 µM; IC50 [2, 22]: 40.5 µM; IC50 [2, 23]: 49.3 ± 13 µM; IC50 [2, 24]: 35.6 µM; IC50 [2, 25]: 24.7 µM; IC50 [2, 26]: 30.1 ± 7.73 µM; IC50 ([3]; HT-29, 24 h, read-out: IC50(1)): 29 µM; IC50 ([3]; HT-29, 24 h, read-out: IC50(2)): 34.6 µM; IC50 [3, 27]: 31.8 ± 3.93 µM; IC50 ([3]; HT-29, 72 h, read-out: IC50(1)): 29.6 µM; IC50 ([3]; HT-29, 72 h, read-out: IC50(2)): 38.7 µM; IC50 [3, 28]: 34.1 ± 6.39 µM |
| COC(=O)[C@@H](N[C@@H](c1ccccc1)c1c(O)ccc2ccccc12)C(C)C (mixture of isomers) [MMZ-33D, (S,S) and (R,R)-methyl ((2-hydroxynaphthalen-1-yl)(phenyl)methyl)-D-valinate] | 47.8 µM | 50.8 µM | 49.3 ± 2.09 µM | 50 µM | 28.7 µM | 39.4 ± 15.1 µM | 60.4 µM | 61.9 µM | 32.3 µM | 43.4 µM | 37.9 ± 7.86 µM | 61.1 ± 1.02 µM | – |
| COC(=O)C[C@H](N[C@H](c1ccccc1)c1c(O)ccc2ccccc12)C(=O)OC (mixture of isomers) [MMZ-147CE, (S,R) and (R,S)-dimethyl ((2-hydroxynaphthalen-1-yl)(phenyl)methyl)-L-aspartate] | – | – | – | – | – | – | – | – | – | – | – | – | viability at 24 h [1, 19]: 82.5 ± 1.8%; viability at 72 h [1, 20]: 66.9 ± 1.08%; IC50 [2, 21]: 54.1 µM; IC50 [2, 22]: 41 µM; IC50 [2, 23]: 47.5 ± 9.26 µM; IC50 [2, 24]: 59.6 µM; IC50 [2, 25]: 34.1 µM; IC50 [2, 26]: 46.8 ± 18 µM; IC50 ([3]; HT-29, 24 h, read-out: IC50(1)): 113 µM; IC50 ([3]; HT-29, 24 h, read-out: IC50(2)): 110 µM; IC50 [3, 27]: 112 ± 2.12 µM; IC50 ([3]; HT-29, 72 h, read-out: IC50(1)): 37.1 µM; IC50 ([3]; HT-29, 72 h, read-out: IC50(2)): 46.1 µM; IC50 [3, 28]: 41.6 ± 6.32 µM |
| O=c1[nH]cc(F)c(=O)[nH]1 [5-Fluorouracil, reference compound] | 49.4 µM | 28.6 µM | 39 ± 14.7 µM | 14.8 µM | 12.1 µM | 13.4 ± 1.9 µM | 48.8 µM | 55.7 µM | 5.16 µM | 3.6 µM | 4.38 ± 1.1 µM | 52.3 ± 4.9 µM | – |
| COC(=O)CC[C@H](N[C@H](c1ccccc1)c1c(O)ccc2ccccc12)C(=O)OC (mixture of isomers) [MMZ-148C, (S,R) and (R,S)-dimethyl ((2-hydroxynaphthalen-1-yl)(phenyl)methyl)-L-glutamate] | – | – | – | – | – | – | – | – | – | – | – | – | solubility [4]: poor solubility |
| COC(=O)C[C@H](N[C@@H](c1ccccc1)c1c(O)ccc2ccccc12)C(=O)OC (mixture of isomers) [MMZ-147B, (S,S) and (R,R)-dimethyl ((2-hydroxynaphthalen-1-yl)(phenyl)methyl)-L-aspartate] | 44.8 µM | 59.7 µM | – | 69.8 µM | 39.3 µM | 54.6 µM | 44.2 µM | 46.8 µM | 12.2 µM | 17.6 µM | 14.9 ± 3.8 µM | 45.5 ± 1.77 µM | viability at 24 h [1, 5]: 69.94 ± 0.21%; viability at 72 h [1, 5]: 72.5 ± 4.37%; viability at 72 h [1, 6]: 86.8 ± 5% |
